# Experimental data as given in a melting point compilation (Tetko et al.; mined from patent text by program, amines drawn as free bases though some values may be those of a salt).
row,Compound,melting point
1,CC(C)Oc1cc(CCCOc2c(CC(=O)O)ccc3ccccc23)n(Cc2ccc(Cl)cc2Cl)n1,96 to 98 °C
2,COc1cc2c3c(cccc3c1)C(=O)c1ccccc1-2,168 to 169 °C
3,COc1ccc(C(=O)[C@H](C)NC(=O)OCc2ccccc2)cc1,46 to 48 °C
4,CCN1C(=O)C(C)(C)C(=O)N(C)c2cc(CCN(CCn3cc(C)c4oc(C)cc4c3=O)Cc3cnccc3C)ccc21,155 to 156 °C
5,O=C(Nc1ccccc1)c1ccc(O)c(Nc2ccccc2)c1,158 to 159 °C
6,S=C=Nc1cc(Cl)ccc1N1CCOCC1,86 to 87 °C
7,COC(C=Cc1ccccc1)=C1C(=O)C=C(C)C1=O,86 °C
8,N#CC(=CN1CCOCC1)Cc1ccc2c(c1)OCO2,85 to 85.5 °C
9,NC1=Nc2ccc([N+](=O)[O-])cc2C(c2ccccc2Cl)=NC1,222 to 224 °C
10,CCNc1cc(-c2c[nH]c(S)n2)ccn1,> 260 °C
11,O=C(c1ccccc1F)c1cc(Br)ccc1NC(=O)C(F)(F)F,132 °C
12,Cc1cn2c(=O)c(C(=O)O)cnc2c2cc(N)ccc12,> 300 °C
13,Cc1cc(Cl)cc(C(=O)NNCC(=O)NCc2ccccc2)c1NC(=O)c1cc(Br)nn1-c1ncccc1Cl,120 to 121 °C
14,N#Cc1ccc(CC23CCCN2C(=O)N(c2cc(Cl)c(N)c(Cl)c2)C3=O)cc1 (stereo not drawn),103 °C
15,Cc1nc2c(OC3SCC(O)C(O)C3O)cccc2n1C (stereo not drawn),153 °C
16,Nc1c(Cl)cccc1NC(=S)Nc1cscc1Cl,276 to 280 °C
17,COc1ccccc1NC(=O)Nc1nc(Nc2ccccc2-c2ccccc2)nc(N(CCC(=O)O)Cc2cccc(F)c2)n1,115 to 128 °C
18,O=C1CCCN1CCc1ccccc1,50.5 to 52.5 °C
19,O=C(NCCCCCCCCc1ccccc1)c1cc(-c2cccc(Cl)c2)c(OCCO)c(-c2cccc(Cl)c2)c1,165 to 167 °C
20,Cn1c(=O)c2c(nc(CCc3cccc(N)c3)n2C)n(C)c1=O,158 to 160 °C
21,COC(=O)c1ccc2[nH]c(=O)n(Cc3ccc(OC)cc3)c(=O)c2c1,235 to 237 °C
22,COc1ccc(S(=O)(=O)Nc2cccnc2Nc2ccccc2C)cc1,80 to 81 °C
23,CC(=O)Nc1nc2c(Oc3cc(-c4ccc(C(F)(F)F)cc4)c(-c4ccc(F)cc4)cn3)cccc2s1,112 to 130 °C
24,O=S(CC(O)CCl)c1ncc(Cl)cn1 (stereo not drawn),170 °C
25,C=CC(=O)NCCCCCCCCCCCCCCCCCC,75 to 77 °C

row,Compound,melting point
1,Cc1cccc(CC(Nc2ccccc2)C(=O)NC(C#N)COCc2ccc(F)c(C(=O)O)c2)c1 (stereo not drawn),107 to 108 °C
2,COC(=O)C[C@H](Cc1ccc(-c2ccccc2)cc1)NC(=O)OC(C)(C)C,86 to 87 °C
3,CON(C)Cc1nc2cnc3ccccc3c2n1CC1CCOCC1,142 to 144 °C
4,Clc1ccc(-n2cccn2)cc1,50 to 53 °C
5,CCc1ccc(Nc2ncc(Cc3ccc(O)nc3)c3ncccc23)cc1Br,262 to 265 °C
6,Nc1nc(-c2ccc(OCC(=O)NCC3CCCCC3)cc2)cs1,145 to 147 °C
7,CCCNC(=O)C(C)(C)Cc1ccc2c(c1)c(Cc1ccc(C(=O)NS(=O)(=O)c3ccccc3C)cc1OC)cn2CCC,102 to 112 °C
8,Cc1oc(-c2ccccc2)nc1COc1ccc(CON=C(CCCCC(N)=O)c2ccccc2)cc1,95 to 96 °C
9,N#Cc1ccc(OCC(NNC(=O)Nc2ccc(OC(F)(F)F)cc2)c2ccccc2)cc1 (stereo not drawn),176 °C
10,CC(N(CCCl)C(N)=O)P(=O)(O)O (stereo not drawn),180 °C
11,CCCCOc1c(CNC(=O)OC(C)(C)C)n(CC2CC2)c(=O)c2ccc(OCc3ccccc3)cc12,106 to 107 °C
12,C#CC(C)(C)c1cc(N)no1,98 to 100 °C
13,CC(C)CCCC(C)C1CCC2C3CC4(OCCO4)C4CCCC(O)C4(C)C3CCC12C (stereo not drawn),96 to 98 °C
14,O=C(c1ccccc1)N1CCN(c2ccccc2)CCn2c1nc1ccccc12,217 to 220 °C
15,NC(=O)NCc1ccc(Cl)cc1,186 to 189 °C
16,CC(=O)Nc1ccc(Sc2ccc(Br)cc2)cc1,153 to 155 °C
17,O=C1CCC(CCO)N1 (stereo not drawn),52 to 52.5 °C
18,CCOC(=O)c1c(NCC(=O)c2ccccc2Cc2ccccc2)c2c(Cl)cc(Cl)cc2n1C(=O)OC(C)(C)C,163 °C
19,COc1cc(NS(=O)(=O)CC(=O)c2ccccc2)c2c(c1)OC(C)C2 (stereo not drawn),143 to 145 °C
20,N#CCCOc1ccc2c(c1)CCO2,< 50 °C
21,CC(=O)OCCSCCCC(=O)NC/C=C\COc1cc(CN2CCCCC2)ccn1,36 to 40 °C
22,CN(C)C(=O)c1noc(-c2cnccc2C(F)(F)F)n1,52 to 54 °C
23,O=C(NO)c1ccc(CNC(=O)c2[nH]c(-c3ccc(F)cc3)cc2-c2ccc(F)cc2)cc1,219 to 220 °C
24,CC(=O)Oc1ccc(-c2ccc3oc(C(=O)O)cc3c2)cc1,251 to 254 °C
25,COC(=O)c1[nH]c2c(C)ccc(C)c2c1SC,82 to 85 °C

row,Compound,melting point
1,CC(C)(CN(Cc1ccccc1)C(=O)CCC(=O)O)SN=O,95 to 98 °C
2,O=c1c2c([nH]c3cn[nH]c13)CCCC2,> 325 °C
3,N#Cc1cc(C[C@H](N)C(=O)O)ccc1O,> 250 °C
4,CCc1cc(Oc2ccc([C@@H]3OC(=O)N[C@@H]3Cc3cccc(OC(F)(F)C(F)F)c3)cc2)ccc1Cl (racemic),100 to 101 °C
5,CC1(C)Cc2c(c(O)cc3c2C(c2cccc(Br)c2)=NCC3(C)C)O1,230 to 235 °C
6,CCCCc1ncc(/C=C(\Cc2cccs2)C(=O)O)n1Cc1ccc(O)c(C)c1,150 to 152 °C
7,CS(=O)c1nnc2c3ccccc3c(-c3ccccc3)nn12 (stereo not drawn),215 to 217 °C
8,CC(=O)N1Cc2c(-c3noc(C4CC4)n3)ncn2-c2ccccc21,187 to 188 °C
9,Cc1cccc(-c2c3c(cc4ccc(O)cc24)-c2ccc(O)cc2CO3)c1,219 to 222 °C
10,Cc1c(-c2ccc(OCc3ccccc3)cc2)[nH]c2ccc(OCc3ccccc3)cc12,149 to 150 °C
11,C#Cc1cc(Cc2cnc(N)nc2N)cc(OC)c1OC,173 to 175 °C
12,CCOCc1nc2c(N)nc3cc(-c4ccccc4)cnc3c2n1CC(C)(C)F,173 to 174 °C
13,O=c1c2c(Cc3cccs3)n[nH]c2c2cccnc2n1-c1cccc(OC(F)(F)F)c1,234 to 238 °C
14,O=S1(=O)N[C@@H](c2cccc(Br)c2)c2ccccc21,163 °C
15,CSCc1c(C(F)(F)F)nn(C)c1O,123 to 124 °C
16,O=C(c1cc2cccc(NS(=O)(=O)c3cccs3)c2[nH]1)N1CCCC1,248 to 249 °C
17,CCC(CC)Nc1nc(C)nc(Oc2c(C)cc(C)nc2C)c1[N+](=O)[O-],134 to 135 °C
18,O=C(O)COCCCCN(c1cnc(-c2ccccc2)c(-c2ccccc2)n1)C1CCCC1,101 to 103 °C
19,O=[N+]([O-])c1ccccc1-c1ccc(CBr)cc1,109 to 110 °C
20,O=C(NCCCCO)OCc1ccccc1,80 to 81 °C
21,CCOC(=O)C1=C(C)Nc2nc(N3CCOCC3)nc(N3CCOCC3)c2C1c1ccccn1 (stereo not drawn),226 °C
22,COc1ccc2c(c1)CCC(=CO)C2=O,66 to 68 °C
23,O=C(O)Cn1c(-c2cccc(Cl)c2)nc2cccnc21,214 to 216 °C
